From patent publication US7345069B2, “Oxidative activation and episulfonium ion-mediated DNA alkylation-based anticancer” (Wisconsin Alumni Research Foundation, priority 2004, dated 2008)
Where two headings read alike, the source gives them in different places.

Assays:
[1] = system: LNCaP cells; test: Growth inhibition by DNA assay, LNCaP cells in androgen-depleted medium, untreated or pretreated with R1881 (with or without vitamin E succinate); type: cell-based
Experimental: To test whether TG-25 was activated under oxidative stress, LNCaP cells were grown in androgen-depleted medium in the presence of 0.01 nM and 1 nM androgen analog R1881 for 96 h. […] This concentration was also close to the range of concentration of the active androgen dihydrotestosterone found in normal human male and patients treated with androgen ablation therapy. The growth inhibitory effect of LNM and TG-25 against LNCaP cells either untreated or pretreated with R1881 as shown in FIG. 9 and FIG. 10, respectively. Under these treatment conditions, 0.01 nM R1881 stimulated growth by about 30% and 1 nM R1881 inhibited cell growth to about 40% of the control untreated cells. The data shown in FIG. 9 and FIG. 10 are normalized for the growth stimulatory or inhibitory effects of R1881 alone.
The effect of LNM and TG-25 against LNCaP cells pretreated with both R1881 and α-tocopherol succinate are shown in FIG. 11 and FIG. 12, respectively. All data for pretreated cells were normalized for the growth inhibition induced by α-tocopherol succinate plus R1881.

[2] = system: LNCaP cells; conditions: cited from earlier work; for cellular ROS level: 96 h
[3] = system: immortalized normal prostatic epithelial cells (E6); test: Growth inhibition by DNA assay, immortalized normal prostatic epithelial cells (E6); type: cell-based
[4] = In vitro oxidation of purified TG-25 on exposure to O2; type: physicochemical; conditions: aqueous or methanol solution
Source text: Three additional minor metabolites were also characterized from the ΔlnmE strain, and their structures were elucidated by the combination of MS, ^1H- and ^13C—NMR, and various 2D NMR spectroscopic methods as discussed above (compound 1, 2, 4, and 5 as shown in FIG. 6) Although these compounds were isolated in minor quantities and were apparently derived from TG-25 during the isolation, their structures were critical in helping to define the oxidative activation of TG-25 undergo rearrangement via an episulfornium ion intermediate (FIG. 6). It was clear by comparing the structure of TG-25 with those of 1 and 2 that an oxidation step was required for their conversion. Isolation of compound 4 shed light into how this oxidative rearrangement from TG-25 to 1 or 2 actually happens. Thus, as depicted in FIG. 6 TG-25 apparently was first oxidized by O2 to form the dimmer 4, activating the sulfhydryl group into a disulfide. Nucleophilic attack of the disulfide by the double bond could then be envisaged to form an episulfonium ion intermediate, in a mechanistic analogy to LNM, that subsequently could be trapped by H2O (leading the formation of 1) or methanol (leading to the formation of 2). This hypothesis was confirmed by re-producing the chemistry in vitro with purified TG-25.

[5] = system: DU-145 cells; test: Growth inhibition by DNA fluorescence assay, cells grown in 5% FBS, 72 h after drug treatment; type: cell-based; conditions: DNA fluorescence 72 h after drug treatment
Experimental: The growth inhibitory effects of LNM against LNCaP and DU-145 cell lines grown in 5% FBS were determined by measuring DNA fluorescence 72 h after drug treatment. […] Growth inhibitory effects of LNM against LNCaP and DU-145 cells were expressed as percent of control untreated cells are shown in FIG. 7.

## C[C@]1(O)CC[C@H]2[C@@H]3CCC4=CC(=O)CCC4=C3C=C[C@@]21C [Compound R1881]
[1]; 0.01 nM R1881, 96 h, androgen-depleted medium
  growth stimulation by R1881 alone: about 30%
[1]; 1 nM R1881, 96 h, androgen-depleted medium
  cell growth with R1881 alone: about 40 % of the control untreated cells
[2]; 0.01 nM R1881, LNCaP cells
  cellular ROS level: reduces the cellular ROS
[2]; 1 nM R1881, LNCaP cells
  cellular ROS level: increases cellular ROS level

## C/C1=C\CC(=O)/C=C/C=C\c2csc(n2)[C@@H](C)NC(=O)C[C@@](S)(C(C)C(=O)O)CC1 (stereo partly drawn) [TG-25]
[1]; Homo sapiens, LNCaP cells pretreated with 1 nM androgen analog R1881, read-out: IC50, growth inhibition of LNCaP prostate cancer cells
  IC50: 5 to 10 µM
[1]; LNCaP cells pretreated with 1 nM R1881 plus α-tocopherol succinate, normalized for pretreatment alone
  growth inhibitory effect after co-pretreatment with R1881 and vitamin E (α-tocopherol succinate): completely reverses the growth inhibitory effect
[1]; LNCaP cells, 0.01 nM R1881 for 96 h
  growth inhibitory effect against cells pretreated with 0.01 nM R1881: no effect
[1]; LNCaP cells, R1881 pretreated (high oxidative stress)
  growth inhibitory effect against R1881 pretreated cells: markedly inhibited the growth
[1]; LNCaP cells, androgen-depleted medium, no R1881
  growth inhibitory effect against control untreated cells: no effect
[3]; immortalized normal prostatic epithelial cells, up to μM concentration
  growth inhibitory effect: little growth inhibitory effect even at μM concentration
[4]
  conversion upon exposure to O2: rapidly converted to 1 or 2

## C/C1=C\[C@@H](O)C(=O)/C=C/C=C\c2csc(n2)[C@@H](C)NC(=O)C[C@@]2(CC1)[S+]([O-])SC(=O)[C@]2(C)O (stereo partly drawn) [LNM, leinamycin]
[5]
  sensitivity of DU-145 cells compared with LNCaP cells: slightly more sensitive to LNM
[1]; LNCaP cells
  growth inhibitory effect in androgen depleted medium compared with 5% FBS: more pronounced
[1]; LNCaP cells pretreated with 0.01 nM or 1 nM R1881
  influence of R1881 pretreatment on growth inhibition: not appreciably affected
[1]; LNM alone or in combination with R1881, LNCaP cells
  influence of α-tocopherol succinate on growth inhibition: no effect
[3]; Epithelial cell, read-out: IC50, growth inhibition
  IC50: < 0.0002 µM
[3]; immortalized normal prostatic epithelial cells vs LNCaP and DU-145
  growth inhibitory effect compared with the prostate cancer cell lines: stronger growth inhibitory effect

## Cc1c(C)c2c(c(C)c1OC(=O)CCC(=O)O)CCC(C)(CCCC(C)CCCC(C)CCCC(C)C)O2 (stereo not drawn) [α-tocopherol (vitamin E) succinate]
[2]; co-treatment of LNCaP cells
  effect on the increase in ROS level by 1 nM R1881 pretreatment: can be inhibited
